Experimental data published in US4742049A, “Semisynthetic erythromycin antibiotics” (Abbott Laboratories, priority 1986, dated 1988).
In brackets after ≈: the same amount, converted by molar mass. Several values for one entry are separate records, joined by “and”; a condition that tells them apart may be missing. Identical values can stand only once. Like-named read-outs stand apart in the source and are kept apart here.

Assays:
Strep. pyogenes = assay: antimicrobial spectrum, agar dilution MIC; format: cell-based; settings: BHI agar, 20-24 hours
Description: (§1) Twelve petri dishes containing successive aqueous dilutions of the test compound mixed with 10 ml of sterilized Brain Heart Infusion agar (Difco 0418-01-5) are prepared. Each plate is inoculated with 1:100 (or 1:10 for slow-growing strains, primarily Micrococcus and Streptococcus) dilutions of up to 32 different microorganisms, using a Steers replicator block. The inoculated plates are incubated at 35°-37° C. for 20-24 hours. In addition, a control plate, using BHI agar containing no test compound, is prepared and incubated at the beginning and end of each test.
(§2) An additional plate containing a compound having known susceptibility patterns for the organisms being tested and belonging to the same antibiotic class as the test compound is also prepared and incubated as a further control, as well as to provide test-to-test comparability.
(§3) After incubation, each disk is read. The MIC is defined as the lowest concentration of drug yielding no growth, a slight haze, or sparsely isolated colonies on the inoculum spot as compared to the growth control.

Strep. agalactiae = assay: antimicrobial spectrum, agar dilution MIC; format: cell-based; settings: Streptococcus agalactiae; strain CMX 633; BHI agar, 20-24 hours; read-out: MIC
Description: as §1, §2, §3

Strep. bovis = assay: antimicrobial spectrum, agar dilution MIC; format: cell-based; settings: Streptococcus equinus, strain A5169; BHI agar, 20-24 hours; read-out: MIC
Description: as §1, §2, §3

Pseudomonas aeruginosa = assay: antimicrobial spectrum, agar dilution MIC; format: cell-based; settings: BHI agar, 20-24 hours
Description: as §1, §2, §3

Strep. pneumoniae = assay: antimicrobial spectrum, agar dilution MIC; format: cell-based; settings: Streptococcus pneumoniae, BHI agar, 20-24 hours
Description: as §1, §2, §3

Strep. faecium = assay: antimicrobial spectrum, agar dilution MIC; format: cell-based; settings: Enterococcus faecium, BHI agar, 20-24 hours
Description: as §1, §2, §3

Staph. aureus = assay: antimicrobial spectrum, agar dilution MIC; format: cell-based; settings: Staphylococcus aureus, BHI agar, 20-24 hours
Description: as §1, §2, §3

Providencia stuartii = assay: antimicrobial spectrum, agar dilution MIC; format: cell-based; settings: strain CMX 640, BHI agar, 20-24 hours
Description: as §1, §2, §3

Strep. faecalis = assay: antimicrobial spectrum, agar dilution MIC; format: cell-based; settings: Enterococcus faecalis, BHI agar, 20-24 hours
Description: as §1, §2, §3

Staph. epidermidis = assay: antimicrobial spectrum, agar dilution MIC; format: cell-based; settings: Staphylococcus epidermidis, BHI agar, 20-24 hours
Description: as §1, §2, §3

Pseudomonas cepacia = assay: antimicrobial spectrum, agar dilution MIC; format: cell-based; settings: strain 2961, BHI agar, 20-24 hours
Description: Erythromycin A was used for this purpose.
After incubation, each disk is read.

Staph. aureus NCTC 10649 = assay: acute mouse protection test; settings: for ED50: Staphylococcus aureus, NCTC10649, in Mus musculus, 168 h, dosed 1 and 5 hours post-infection, observed 7 days; for # Died: ten mice
Description: The acute mouse protection test is conducted on ten mice with each of three levels of drug.
The acute mouse protection test is conducted on female, Swiss albino mice, 18-20 grams in weight. The mice are injected intraperitoneally with an 18-hour culture of the indicated test organism diluted sufficiently to provide the desired LD50 value. To check the potency of the inoculum, a titration of the indicated test organism is carried out in control animals. […] The ED50 values are calculated using the mortality data collected.

Klebsiella pneumoniae = assay: antimicrobial spectrum, agar dilution MIC; format: cell-based; settings: strain 8045, BHI agar, 20-24 hours
Micrococcus luteus = assay: antimicrobial spectrum, agar dilution MIC; format: cell-based; settings: strain 4698, BHI agar, 20-24 hours
Staph. saprophyticus = assay: microbe, parasite or virus in culture; settings: Staphylococcus saprophyticus, ATCC15305
Description: as §1, §2, §3

Ent. aerogenes = assay: antimicrobial spectrum, agar dilution MIC; format: cell-based

CC[C@H]1OC(=O)[C@H](C)[C@@H](O[C@H]2C[C@@](C)(OC)[C@@H](O)[C@H](C)O2)[C@H](C)[C@@H](O[C@@H]2O[C@H](C)C[C@H](N(C)C)[C@H]2O)[C@](C)(O)C[C@@H](C)C(=O)[C@H](C)[C@@H](O)[C@]1(C)O [Erythromycin A]
MIC (Strep. pyogenes; Streptococcus pyogenes, strain 930, read-out: MIC): > 200 µg/mL | MIC (Strep. pyogenes; Streptococcus pyogenes, strain C203, read-out: MIC): 0.002 µg/mL (≈ 0.00273 µM) | MIC (Strep. pyogenes; Streptococcus pyogenes, strain EES61, read-out: MIC): 0.06 µg/mL (≈ 0.0818 µM) | MIC (Strep. pyogenes; Streptococcus pyogenes, strain M79061-98): 1 µg/mL (≈ 1.36 µM) | MIC (Strep. pyogenes; Streptococcus pyogenes, strain M79061-139, read-out: MIC): 0.015 µg/mL (≈ 0.0204 µM) | MIC (Strep. pyogenes; Streptococcus pyogenes, strain M79061-140, read-out: MIC): 0.008 µg/mL (≈ 0.0109 µM) | MIC (Strep. pyogenes; strain 930): > 100 µg/mL | MIC (Strep. agalactiae): 0.015 µg/mL (≈ 0.0204 µM) | MIC (Strep. bovis): 0.01 µg/mL (≈ 0.0136 µM) | MIC (Pseudomonas aeruginosa; Pseudomonas aeruginosa, strain 5007): 200 µg/mL (≈ 273 µM) | MIC (Pseudomonas aeruginosa; Pseudomonas aeruginosa, strain BMH10): 100 µg/mL (≈ 136 µM) | MIC (Pseudomonas aeruginosa; Pseudomonas aeruginosa, strain K799/61): 1.56 µg/mL (≈ 2.13 µM) | MIC (Pseudomonas aeruginosa; Pseudomonas aeruginosa, strain K799/WT): 200 µg/mL (≈ 273 µM) | MIC (Pseudomonas aeruginosa; strain 5007): > 100 µg/mL | MIC (Pseudomonas aeruginosa; strain K799/WT): > 100 µg/mL and 100 µg/mL | MIC (Strep. pneumoniae; strain 78-008107): 32 µg/mL (≈ 43.6 µM) | MIC (Strep. pneumoniae; strain CMX 635, read-out: MIC): 0.015 µg/mL (≈ 0.0204 µM) | MIC (Strep. pneumoniae; strain CMX 698, read-out: MIC): 0.008 µg/mL (≈ 0.0109 µM) | MIC (Strep. faecium; ATCC8043, strain ATCC 8043): 0.1 µg/mL (≈ 0.136 µM) | MIC (Strep. faecium; ATCC8043, strain ATCC 8043, read-out: MIC): 0.06 µg/mL (≈ 0.0818 µM) | MIC (Staph. aureus; ATCC6538P, strain ATCC 6538P, read-out: MIC): 0.12 µg/mL (≈ 0.164 µM) | MIC (Staph. aureus; ATCC25923, strain ATCC 25923, read-out: MIC): 0.06 µg/mL (≈ 0.0818 µM) | MIC (Staph. aureus; NCTC10649, strain NCTC 10649, read-out: MIC): 0.06 µg/mL (≈ 0.0818 µM) | MIC (Staph. aureus; strain 45 RAR 2): 0.2 µg/mL (≈ 0.273 µM) | MIC (Staph. aureus; strain 642A, read-out: MIC): 0.12 µg/mL (≈ 0.164 µM) | MIC (Staph. aureus; strain A5177, read-out: MIC): 0.78 µg/mL (≈ 1.06 µM) | MIC (Staph. aureus; strain CMX 686B, read-out: MIC): 0.12 µg/mL (≈ 0.164 µM) | MIC (Staph. aureus; strain CMX 705, read-out: MIC): 0.06 µg/mL (≈ 0.0818 µM) | MIC (Staph. aureus; strain CMX 730A, read-out: MIC): 0.06 µg/mL (≈ 0.0818 µM) | MIC (Staph. aureus; strain CMX 739A, read-out: MIC): 0.06 µg/mL (≈ 0.0818 µM) | MIC (Staph. aureus; strain GYR 1150, read-out: MIC): 0.06 µg/mL (≈ 0.0818 µM) | MIC (Staph. aureus; strain GYR 1162, read-out: MIC): 0.06 µg/mL (≈ 0.0818 µM) | MIC (Providencia stuartii): > 100 µg/mL | MIC (Providencia stuartii; read-out: MIC): > 200 µg/mL | MIC (Strep. faecalis; strain CMX 663F): 2 µg/mL (≈ 2.73 µM) | MIC (Strep. faecalis; strain CMX 729G): 0.5 µg/mL (≈ 0.681 µM) | MIC (Strep. faecalis; strain CMX 736F): 0.5 µg/mL (≈ 0.681 µM) | MIC (Strep. faecalis; strain GYR 1164): 0.5 µg/mL (≈ 0.681 µM) | MIC (Strep. faecalis; strain GYR 1166): 0.5 µg/mL (≈ 0.681 µM) | MIC (Strep. faecalis; strain GYR 1167): 4 µg/mL (≈ 5.45 µM) | MIC (Staph. epidermidis; strain 3519, read-out: MIC): 0.21 µg/mL (≈ 0.286 µM) | MIC (Staph. epidermidis; strain 3519 RARI): 0.2 µg/mL (≈ 0.273 µM) | MIC (Staph. epidermidis; strain CMX 728, read-out: MIC): 0.06 µg/mL (≈ 0.0818 µM) | MIC (Staph. epidermidis; strain GYR 1151, read-out: MIC): 0.12 µg/mL (≈ 0.164 µM) | MIC (Pseudomonas cepacia; Burkholderia cepacia, read-out: MIC): 200 µg/mL (≈ 273 µM) | MIC (Pseudomonas cepacia): > 100 µg/mL | ED50 (Staph. aureus NCTC 10649; po, dosage medium Carboxymethylcellulose): 48.8 mg/kg | ED50 (Staph. aureus NCTC 10649; po, dosage medium PBS): 75.7 mg/kg | ED50 (Staph. aureus NCTC 10649; sc, subcutaneous, dosage medium Injectable solution): 10.9 mg/kg | # Died (Staph. aureus NCTC 10649; oral, Carboxymethylcellulose, 15.6 mg/kg): 8 | # Died (Staph. aureus NCTC 10649; oral, Carboxymethylcellulose, 37.5 mg/kg): 5 | # Died (Staph. aureus NCTC 10649; oral, Carboxymethylcellulose, 250.0 mg/kg): 0 | # Died (Staph. aureus NCTC 10649; oral, PBS, 15.6 mg/kg): 10 | # Died (Staph. aureus NCTC 10649; oral, PBS, 37.5 mg/kg): 4 | # Died (Staph. aureus NCTC 10649; oral, PBS, 250.0 mg/kg): 0 | # Died (Staph. aureus NCTC 10649; subcutaneous, Injectable solution, 2.5 mg/kg): 10 | # Died (Staph. aureus NCTC 10649; subcutaneous, Injectable solution, 10.0 mg/kg): 6 | # Died (Staph. aureus NCTC 10649; subcutaneous, Injectable solution, 40.0 mg/kg): 0 | MIC (Klebsiella pneumoniae): 50 µg/mL (≈ 68.1 µM) | MIC (Micrococcus luteus): 0.1 µg/mL (≈ 0.136 µM) | MIC (Staph. saprophyticus): 0.03 µg/mL (≈ 0.0409 µM) | MIC (Ent. aerogenes; Klebsiella aerogenes, ATCC10348): 100 µg/mL (≈ 136 µM) | MIC (Ent. aerogenes; Klebsiella aerogenes, ATCC13048, strain ATCC 13048, BHI agar, 20-24 hours, read-out: MIC): 50 µg/mL (≈ 68.1 µM) | MIC (Ent. aerogenes; strain ATCC 10348, BHI agar, 20-24 hours): 50 µg/mL (≈ 68.1 µM)
